# According to patent publication EP4635500A1, “THERAPEUTIC AGENT FOR BACTERIAL INFECTION” (Sumitomo Pharma Co., Ltd., priority 2022, dated 2024):
# Where two headings read alike, the source gives them in different places.
# What was measured:
# [1] = system: Enterobacterales; experiment: MIC, broth microdilution, CDC/FDA Antibiotic Resistance Isolate Bank (Example 7, Tables 8, 11, 12); format: cell-based; details: read-out: MIC
# [2] = system: A. baumannii; experiment: MIC, broth microdilution, CDC/FDA Antibiotic Resistance Isolate Bank (Example 7, Tables 9, 13, 14); format: cell-based, Acinetobacter baumannii; details: for MIC: read-out: MIC
# [3] = MIC distribution, metallo-β-lactamase-producing A. baumannii, inhibitor µg/mL in parentheses
structure (smiles),measurement,setting,value
"O=C(O)c1cn(C2CC2)c2cc(N3CCNCC3)c(F)cc2c1=O [Ciprofloxacin, ciprofloxacin]",MIC,"[1]; Klebsiella pneumoniae, KUB No. 5760, AR Bank # 364",> 64 µg/mL
same,MIC,"[1]; Klebsiella pneumoniae, Klebsiella pneumoniae KUB No. 5784, AR Bank #438",> 64 µg/mL
same,MIC,"[1]; Klebsiella pneumoniae, Klebsiella pneumoniae KUB No. 5797, AR Bank #453",> 64 µg/mL
same,MIC,"[1]; Klebsiella pneumoniae, Klebsiella pneumoniae KUB No. 5809, AR Bank #504",2 µg/mL
same,MIC,"[1]; Klebsiella pneumoniae, Klebsiella pneumoniae KUB No. 5810, AR Bank #505",0.5 µg/mL
same,MIC,"[1]; Klebsiella pneumoniae, Klebsiella pneumoniae KUB No. 5811, AR Bank #506",2 µg/mL
same,MIC,"[1]; Klebsiella pneumoniae, Klebsiella pneumoniae KUB No. 5812, AR Bank #507",> 64 µg/mL
same,MIC,"[1]; Klebsiella pneumoniae, Klebsiella pneumoniae KUB No. 5828, AR Bank #523",4 µg/mL
same,MIC,"[1]; Klebsiella pneumoniae, Klebsiella pneumoniae KUB No. 5830, AR Bank #525",> 64 µg/mL
same,MIC,"[1]; Kluyvera ascorbata, KUB No. 5641, AR Bank # 144",1 µg/mL
same,MIC,"[1]; Morganella morganii, KUB No. 5554, AR Bank# 57",> 64 µg/mL
same,MIC,"[1]; Morganella morganii, Morganella morganii KUB No. 5824, AR Bank #519",0.06 µg/mL
same,MIC,"[1]; Proteus mirabilis, KUB No. 5652, AR Bank # 155",> 64 µg/mL
same,MIC,"[1]; Proteus mirabilis, KUB No. 5653, AR Bank # 156",4 µg/mL
same,MIC,"[1]; Proteus mirabilis, KUB No. 5656, AR Bank # 159",1 µg/mL
same,MIC,"[1]; Proteus mirabilis, KUB No. 5775, AR Bank # 379",4 µg/mL
same,MIC,"[1]; Providencia rettgeri, KUB No. 5579, AR Bank # 82",0.06 µg/mL
same,MIC,"[1]; Serratia marcescens, KUB No. 5588, AR Bank # 91",0.06 µg/mL
same,MIC,"[1]; Serratia marcescens, KUB No. 5596, AR Bank # 99",0.06 µg/mL
same,MIC,"[1]; Serratia marcescens, KUB No. 5618, AR Bank # 121",0.06 µg/mL
same,MIC,"[1]; Serratia marcescens, KUB No. 5619, AR Bank # 122",0.06 µg/mL
same,MIC,"[1]; Serratia marcescens, KUB No. 5620, AR Bank # 123",0.06 µg/mL
same,MIC,"[1]; Serratia marcescens, KUB No. 5621, AR Bank # 124",0.06 µg/mL
same,MIC,"[1]; Serratia marcescens, KUB No. 5627, AR Bank # 130",0.06 µg/mL
same,MIC,"[1]; Serratia marcescens, KUB No. 5628, AR Bank # 131",0.06 µg/mL
same,MIC,"[1]; Serratia marcescens, Serratia marcescens KUB No. 5822, AR Bank #517",1 µg/mL
same,MIC,"[1]; Serratia marcescens, Serratia marcescens KUB No. 5825, AR Bank #520",1 µg/mL
same,MIC,"[2]; Acinetobacter baumannii, A. baumannii KUB No. 5567, AR Bank #70, OXA-58, OXA-100",8 µg/mL
same,MIC,"[2]; Acinetobacter baumannii, A. baumannii KUB No. 5575, AR Bank #78, OXA-71",> 64 µg/mL
same,MIC,"[2]; Acinetobacter baumannii, A. baumannii KUB No. 5598, AR Bank #101, OXA-24, OXA-65",> 64 µg/mL
same,MIC,"[2]; Acinetobacter baumannii, A. baumannii KUB No. 5706, AR Bank #273, OXA-23, OXA-66",> 64 µg/mL
same,MIC,"[2]; Acinetobacter baumannii, A. baumannii KUB No. 5707, AR Bank #274, OXA-66, OXA-72",> 64 µg/mL
same,MIC,"[2]; Acinetobacter baumannii, A. baumannii KUB No. 5710, AR Bank #277, OXA-24, OXA-65",> 64 µg/mL
same,MIC,"[2]; Acinetobacter baumannii, A. baumannii KUB No. 5713, AR Bank #280, OXA-66",> 64 µg/mL
same,MIC,"[2]; Acinetobacter baumannii, A. baumannii KUB No. 5718, AR Bank #285, OXA-24, OXA-65",> 64 µg/mL
same,MIC,"[2]; Acinetobacter baumannii, KUB No. 5721, AR Bank #288",> 64 µg/mL
same,MIC,"[2]; Acinetobacter baumannii, KUB No. 5722, AR Bank #259",> 64 µg/mL
same,MIC,"[2]; Acinetobacter baumannii, KUB No. 5724, AR Bank #291",> 64 µg/mL
same,MIC,"[2]; Acinetobacter baumannii, KUB No. 5727, AR Bank #294",> 64 µg/mL
same,MIC,"[2]; Acinetobacter baumannii, KUB No. 5728, AR Bank #295",> 64 µg/mL
same,MIC,"[2]; Acinetobacter baumannii, KUB No. 5729, AR Bank #296",> 64 µg/mL
same,MIC,"[2]; Acinetobacter baumannii, KUB No. 5730, AR Bank #297",> 64 µg/mL
same,MIC,"[2]; Acinetobacter baumannii, KUB No. 5732, AR Bank #299",> 64 µg/mL
same,MIC,"[2]; Acinetobacter baumannii, KUB No. 5733, AR Bank #300",> 64 µg/mL
same,MIC,"[2]; Acinetobacter baumannii, KUB No. 5734, AR Bank #301",> 64 µg/mL
same,MIC,"[2]; Acinetobacter baumannii, KUB No. 5735, AR Bank #302",> 64 µg/mL
same,MIC,"[2]; Acinetobacter baumannii, KUB No. 5737, AR Bank #304",> 64 µg/mL
same,MIC,"[2]; Acinetobacter baumannii, KUB No. 5738, AR Bank #305",> 64 µg/mL
same,MIC,"[2]; Acinetobacter baumannii, KUB No. 5739, AR Bank #306",> 64 µg/mL
same,MIC,"[2]; Acinetobacter baumannii, KUB No. 5741, AR Bank #308",> 64 µg/mL
same,MIC,"[2]; Acinetobacter baumannii, KUB No. 5742, AR Bank #309",> 64 µg/mL
same,MIC,"[2]; Acinetobacter baumannii, KUB No. 5743, AR Bank #310",> 64 µg/mL
same,MIC,"[2]; Acinetobacter baumannii, KUB No. 5745, AR Bank #312",8 µg/mL
same,MIC80,"[2]; Acinetobacter baumannii, 55 isolates of A. baumannii, read-out: MIC80",> 64 µg/mL
same,MIC90,"[2]; Acinetobacter baumannii, 55 isolates of A. baumannii, read-out: MIC90",> 64 µg/mL
same,Number of isolates at MIC 16 µg/mL,[2]; [3],1
same,Number of isolates at MIC 32 µg/mL,[2]; [3],1
same,Number of isolates at MIC >32 µg/mL,[2]; [3],1
same,Number of isolates at MIC >64 µg/mL,[2]; [3],1
